Positions count from the first letter of the chain named.
Tests used:
T7.39N 5-HT1B receptor = T7.39N 5-HT1B receptor (Homo sapiens, UniProt P28222, T355N); experiment: cAMP accumulation in HEK293T cells, T7.39N 5-HT1B; format: cell-based; parameters: host or cells: HEK293T; conditions: point-mutated receptor, 3 independent experiments, read-out: pEC50 5-HT1B Receptor N7.39T (converted)
Procedure: (§1) Briefly, cells transfected with the desired receptor construct and compounds were incubated in the dark for 90 min at 37 °C. After incubation, cAMP detection reagents were added, and TR-FRET was used to quantify the cAMP produced.
(§2) The functional activity of compounds was determined by stimulating cells expressing the desired receptor with FSK and test compound in parallel with 12 known concentrations of cAMP. The known concentrations of cAMP were used to create a standard curve for each experiment that was used to interpolate the unknown values of cAMP in wells with test compounds. […] The EC50 and EMAX values were determined using the “dose response – log[agonist] vs response (three parameter)” nonlinear regression model in Prism and transformed to pEC50 values, reported as mean ± SD.
(§3) Summary of functional assay conditions at various 5-HT1 receptor point mutation constructs.

N7.39T 5-HT1A receptor [1] = target: T1, N7.39T 5-HT1A receptor (Homo sapiens, UniProt P08908, N386T); experiment: cAMP accumulation in HEK293T cells, N7.39T 5-HT1A; format: cell-based; parameters: mutated in house (Quikchange II) HTR01A0000; host or cells: HEK293T; conditions: point-mutated receptor, 3 independent experiments, read-out: pEC50 5-HT1A Receptor N7.39T (converted)
T1 sequence (P08908 1-422 N386T): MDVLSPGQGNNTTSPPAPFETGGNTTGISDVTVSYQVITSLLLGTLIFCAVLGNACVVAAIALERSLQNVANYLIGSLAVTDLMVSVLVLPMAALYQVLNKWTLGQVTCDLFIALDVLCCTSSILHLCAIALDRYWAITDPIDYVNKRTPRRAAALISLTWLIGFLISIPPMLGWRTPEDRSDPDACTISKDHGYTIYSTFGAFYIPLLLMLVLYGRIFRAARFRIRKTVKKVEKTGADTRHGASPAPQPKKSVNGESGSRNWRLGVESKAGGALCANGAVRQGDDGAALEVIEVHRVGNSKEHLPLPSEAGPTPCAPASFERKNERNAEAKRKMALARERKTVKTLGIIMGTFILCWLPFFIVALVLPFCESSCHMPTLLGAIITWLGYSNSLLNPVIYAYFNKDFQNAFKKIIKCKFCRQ
Procedure: as §1, §2, §3

Y5.38A 5-HT1A receptor = target: T2, Y5.38A 5-HT1A receptor (Homo sapiens, UniProt P08908, Y195A); experiment: cAMP accumulation in HEK293T cells, Y5.38A 5-HT1A; format: cell-based; parameters: mutated in house (Quikchange II) HTR01A0000; host or cells: HEK293T; conditions: point-mutated receptor, 3 independent experiments, read-out: pEC50 5-HT1A Receptor Y5.38A (converted)
T2 sequence (P08908 1-422 Y195A): T1 sequence (P08908 1-422 N386T) with Y195A, T386N
Procedure: as §1, §2, §3

V3.33I 5-HT1A receptor [2] = target: T3, V3.33I 5-HT1A receptor (Homo sapiens, UniProt P08908, V117I); experiment: cAMP accumulation in HEK293T cells, V3.33I 5-HT1A; format: cell-based; parameters: mutated in house (Quikchange II) HTR01A0000; host or cells: HEK293T; conditions: point-mutated receptor, 3 independent experiments, read-out: pEC50 5-HT1A Receptor V3.33I (converted)
T3 sequence (P08908 1-422 V117I): T1 sequence (P08908 1-422 N386T) with V117I, T386N
Procedure: as §1, §2, §3

N7.39T 5-HT1A receptor [3] = target: T1, N7.39T 5-HT1A receptor; experiment: Radioligand binding, N7.39T 5-HT1A
Procedure: (§4) 48 hours after transfection with the desired receptor construct, cells were isolated for saturation and competition binding assays as previously described.[47],[48],[57] Saturation and competition radioligand binding assays were conducted in an assay buffer consisting of 50 mM Tris HCl, 10 mM MgCl2, and 0.1 mM EDTA in filtered deionized water. […] Briefly, 5–10 μg of the receptor protein, as determined by a Thermo Fisher Pierce BCA protein assay kit, was incubated with 8 concentrations of radioligand in triplicate to determine total binding. […] Nonspecific binding was determined as above for saturation assays.
(§5) For radioligand binding data, nonspecific binding was subtracted from the total binding to get specific binding. Saturation binding data was fit to the “binding saturation-specific binding with hill slope” model. Competition binding data were fit to the “binding competition-one-site fit Ki” non-linear regression model and transformed to pKi values, reported as mean ± SD.
(§6) is 50 mM Tris HCl, 10 mM MgCl2 and 0.1 mM EDTA in filtered deionized water.

V3.33I 5-HT1A receptor [4] = target: T3, V3.33I 5-HT1A receptor; experiment: Radioligand binding, V3.33I 5-HT1A
Procedure: as §4, §5, §6

S5.42A 5-HT1A receptor = target: T4, S5.42A 5-HT1A receptor (Homo sapiens, UniProt P08908, S199A); experiment: cAMP accumulation in HEK293T cells, S5.42A 5-HT1A; format: cell-based; parameters: mutated in house (Quikchange II) HTR01A0000; host or cells: HEK293T; conditions: point-mutated receptor, 3 independent experiments, read-out: pEC50 5-HT1A Receptor S5.42A (converted)
T4 sequence (P08908 1-422 S199A): T1 sequence (P08908 1-422 N386T) with S199A, T386N
Procedure: as §1, §2, §3

Sequence of T7.39N 5-HT1B receptor (P28222 whole entry T355N): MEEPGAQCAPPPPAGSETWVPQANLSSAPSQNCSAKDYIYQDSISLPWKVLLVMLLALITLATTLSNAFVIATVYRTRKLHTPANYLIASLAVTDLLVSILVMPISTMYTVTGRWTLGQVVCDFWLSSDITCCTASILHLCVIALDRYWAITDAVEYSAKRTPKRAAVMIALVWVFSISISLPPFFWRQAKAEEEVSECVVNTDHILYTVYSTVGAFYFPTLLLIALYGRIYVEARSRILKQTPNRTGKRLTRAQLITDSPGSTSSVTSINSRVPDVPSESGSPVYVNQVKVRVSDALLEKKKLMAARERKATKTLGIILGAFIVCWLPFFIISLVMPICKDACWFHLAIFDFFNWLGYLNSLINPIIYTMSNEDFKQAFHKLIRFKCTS

| Compound | EC50 (T7.39N 5-HT1B receptor) [nM] | EC50 (N7.39T 5-HT1A receptor [1]) [nM] | EC50 (Y5.38A 5-HT1A receptor) [nM] | EC50 (V3.33I 5-HT1A receptor [2]) [nM] | Ki (N7.39T 5-HT1A receptor [3]) [nM] | Ki (V3.33I 5-HT1A receptor [4]) [nM] | EC50 (S5.42A 5-HT1A receptor) [nM] |
| --- | --- | --- | --- | --- | --- | --- | --- |
| CN(C)[C@H]1CCc2c(cccc2-c2cccc3ccccc23)C1 [(S)-NAP] | 37.2 | 347 | 4680 | 355 | 66.1 | 63.1 | 363 |
| Fc1ccccc1-c1cccc2c1CC[C@H](N1CCCC1)C2 [(S)-PFPT] | 19.5 | 25.1 | 2.04 | 10.5 | 8.51 | 8.13 | 1.62 |
